Target: T1, Recombinant Hepatic Lipase (Homo sapiens, UniProt P11150)
T1 construct: made in house; host or cells: AV12 cells
T1 sequence (P11150 23-499): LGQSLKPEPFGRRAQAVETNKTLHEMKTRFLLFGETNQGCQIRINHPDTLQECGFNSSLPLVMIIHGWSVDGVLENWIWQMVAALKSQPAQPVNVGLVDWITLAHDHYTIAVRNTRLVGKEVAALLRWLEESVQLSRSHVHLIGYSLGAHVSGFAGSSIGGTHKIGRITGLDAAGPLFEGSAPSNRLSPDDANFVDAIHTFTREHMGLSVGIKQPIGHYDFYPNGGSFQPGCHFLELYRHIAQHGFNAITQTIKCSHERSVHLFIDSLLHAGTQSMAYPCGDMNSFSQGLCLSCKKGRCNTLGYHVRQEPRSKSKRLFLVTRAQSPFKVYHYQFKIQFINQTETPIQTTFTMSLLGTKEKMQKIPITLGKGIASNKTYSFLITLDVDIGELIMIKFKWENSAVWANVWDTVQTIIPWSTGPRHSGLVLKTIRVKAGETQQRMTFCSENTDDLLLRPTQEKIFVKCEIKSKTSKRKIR
Assay: Hepatic Lipase Phospholipase Assay
Format: biochemical
Conditions: ThioPEG substrate, DTNB read at 412 nm, pH 8.3, 37° C., HL 12.5 nM
Experimental: Hepatic Lipase Phospholipase Assay
Efficacy was determined by testing various compounds of the invention in a hepatic lipase and/or endothelial lipase assay discussed below, and disclosed in U.S. patent application Ser. No. 09/609, 871 filed Jul. 3, 2000 incorporated herein in its entirety for U.S Patent Office purposes.
• Substrate Buffer A: 100 mM Hepes, pH 8.3 at 37° C. • Substrate Buffer B: 100 mM Hepes, pH 8.3 at 37° C. with 6.83 mM Triton X100 • ThioPEG: Molecular wt. of 540 • Recombinant Hepatic Lipase • Thiophospholipid: about 0.42 mM thiophospholipid in chloroform • DTNB Solution: about […] DTNB in DMSO (dimethyl sulfoxide) Hepes Buffer A
For Hepes Buffer A, there is 2.4 g Hepes/100 mL water. Therefore 36 grams of Hepes is dissolved in 1500 mL of water. The mix solution's pH is adjusted to pH83 at 37° C. and brought up to 1500 mL with water. 500 mL of Buffer A is retained for the Protein Buffer.
To the remaining 1000 mL of Hepes Buffer A, 4.49 g of Triton X-100 is added and then the combination mixed on a stir plate. It is optimal that stock Buffer A not be too cold or Triton X-100 will take a long time to go into solution
For 0.42 mM substrate stock, use 0.227 mg of thioPEG/mL of Substrate Buffer B. Approximately 20 mg of sn-1 thiol substituted Phosphatidyl Ethylene Glycol (see Examples for preparation method) is weighed into a vial, such as a scintillation vial. Enough chloroform should be added to make a 2.043 mg/mL solution. Sonicate the solution briefly until well dissolved. Next, pipette 1 mL of chloroform/substrate solution into each scintillation vial. This should give enough substrate for one full 96 well plate. Each vial is dried with nitrogen until solvent removed, swirling each vial simultaneously such that a thin film of substrate will be easily reconstituted in each buffer. Each vial is then frozen.
Daily stock preparation is-performed for 9 mL of substrate (one microtiter plate). On the day of the assay, the substrate vial is removed from the freezer and combined with 9 mL of pre-warmed (37° C.) substrate buffer (the final concentration is 0.227 mg/mL). Place the buffer in a 37° C. water bath. Sonicate for 5 minutes or vortex until solution is clear before use.
The enzyme is stored at −80° C. in 100 or 50 μL portions. A 0.406 mg/mL recombinant hepatic lipase and/or endothelial lipase stock requires a 50-fold dilution. Therefore, to a 50 μl or 100 μl enzyme aliquot, 2450 μl or 4900 μl, respectively, of substrate Buffer A (protein buffer) should be added. The enzyme should then be stored on ice until ready to use. The protein concentration of enzyme is about 0.406 mg/mL.
To make a 20 mg/mL stock solution, 2-3 mg of DTNB is weighed and then mixed with an appropriate amount of 100% DMSO (dimethyl sulfoxide) to make the desired concentration. This mixture is sonicated for five minutes.
The above solution should be diluted 10 fold with substrate Buffer B (concentration now 2 mg/mL). Then to the thioPEG substrate solution, add 60 μl of dilute DTNB per mL of thioPEG substrate solution. Thus for 9 mL of substrate, 540 microliters of dilute DTNB (final concentration in substrate solution=0.11 mg/mL).
The test compound is dissolved in pure DMSO at […]. As shown below in Table 2, assay concentrations are 10, 1, 0.1, 0.33, 0.011, 0.0037, 0.0012 and 0.00041 μM.
Using a spectrometer, DTNB is used as a thiol coloring reagent with an incubator temperature of 37° C. Substrate Buffer B is placed in a 37° C. water bath to pre-warm. The substrate is removed from the freezer and 9 mL of substrate Buffer B, 100 mM Hepes, 6.83 mM Tx-100) is added, sonicated for 5 min. and then kept in a 37° C. water bath. Dilutions of the test compound are next made in preparation for assay.
10 μl of the diluted test compound are transferred via pipette into the wells. Control wells receive 10 μl each of 10% DMSO and enzyme solution, while blank wells receive 10 microliters of 10% DMSO and 10 microliters of saline (no enzyme). […]

Compound | IC50 [nM]
CCCCCCCCNC(=O)n1sc2ccccc2c1=O | 649 ± 17
CCCCCCCCCCCCNC(=O)n1sc2ccccc2c1=O | 933 ± 34
Cc1cccc(CNC(=O)n2sc3ccccc3c2=O)c1 | 409 ± 14
Cc1ccc(CNC(=O)n2sc3ccccc3c2=O)cc1 | 671 ± 18
CC(C)NC(=O)n1sc2cc(Cl)ccc2c1=O | 626 ± 20
CCCCCNC(=O)n1sc2cc(Cl)ccc2c1=O | 532 ± 10
CCCCCCNC(=O)n1sc2cc(Cl)ccc2c1=O | 333 ± 8
O=C(NC1CCCCC1)n1sc2cc(Cl)ccc2c1=O | 419 ± 7
O=C(NCc1ccccc1)n1sc2cc(Cl)ccc2c1=O | 893 ± 48
CCc1cccc(C)c1CNC(=O)n1sc2ccccc2c1=O [drawing 18] | 237 ± 4
Cc1cccc(C(C)C)c1CNC(=O)n1sc2ccccc2c1=O [drawing 19] | 238 ± 13
O=C(NCCCCC1CCCCC1)n1sc2ccccc2c1=O [drawing 22] | 482 ± 21

The next lines start with the values.

IC50 [nM] | Compound
724 ± 16 | CCCCCCNC(=O)n1sc2ccccc2c1=O
622 ± 19 | CC(C)CCCCNC(=O)n1sc2ccccc2c1=O
757 ± 18 | CCCCCCCNC(=O)n1sc2ccccc2c1=O
183 ± 6 | Cc1ccccc1CNC(=O)n1sc2ccccc2c1=O
879 ± 24 | CCCCCNC(=O)n1sc2ccccc2c1=O [drawing 9]
430 ± 19 | O=C(NCCCc1ccccc1)n1sc2ccccc2c1=O [drawing 20]
458 ± 16 | O=C(NCCCCc1ccccc1)n1sc2ccccc2c1=O [drawing 21]

Tested on: not given
Assay: not given
Conditions: not given

Compound | melting point [°C]
CCNC(=O)n1sc2ccccc2c1=O [Example 1, 3-Oxo-3H-benzo[d]isothiazole-2-carboxylic acid ethylamide] | 123 to 124
CCCNC(=O)n1sc2ccccc2c1=O [Example 2, 3-Oxo-3H-benzo[d]isothiazole-2-carboxylic acid propylamide] | 90 to 91
C=CCNC(=O)n1sc2ccccc2c1=O [Example 3, 3-Oxo-3H-benzo[d]isothiazole-2-carboxylic acid allylamide] | 116 to 119
CCc1cccc(C)c1CNC(=O)n1sc2ccccc2c1=O [Example 13, 3-Oxo-3H-benzo[d]isothiazole-2-carboxylic acid 2-ethyl-6-methyl-benzylamide] | 102 to 104
Cc1cccc(C(C)C)c1CNC(=O)n1sc2ccccc2c1=O [Example 14, 3-Oxo-3H-benzo[d]isothiazole-2-carboxylic acid 2-isopropyl-6-methyl-benzylamide] | 102 to 103
O=C(NCCCCC1CCCCC1)n1sc2ccccc2c1=O [Example 19, 3-Oxo-3H-benzo[d]isothiazole-2-carboxylic acid (4-cyclohexyl-butyl)-amide] | 76 to 78

Now from value to molecule:

melting point [°C] | Compound
42 to 44 | CCCCCNC(=O)n1sc2ccccc2c1=O [Example 4, 3-Oxo-3H-benzo[d]isothiazole-2-carboxylic acid pentylamide]
153 to 155 | O=C(NCCc1ccccc1)n1sc2ccccc2c1=O [Example 15, 3-Oxo-3H-benzo[d]isothiazole-2-carboxylic acid phenethylamide]
109 to 111 | O=C(NCCCc1ccccc1)n1sc2ccccc2c1=O [Example 17, 3-Oxo-3H-benzo[d]isothiazole-2-carboxylic acid (3-phenyl-propyl)-amide]
119 to 120 | O=C(NCCCCc1ccccc1)n1sc2ccccc2c1=O [Example 18, 3-Oxo-3H-benzo[d]isothiazole-2-carboxylic acid (4-phenyl-butyl)-amide]
